Measured values published in article PMC10295463, “Computational Characterization of the Binding Properties of the HIV1-Neutralizing Antibody PG16 and Design of PG16-Derived CDRH3 Peptides” (Biology, 2023).
Bridge positions count the residues as written; N and C are the ends. Square brackets hold non-standard residues; d marks the D form. Peptide text beside a SMILES is read from it. * marks the point of attachment. Biotin = O=C1N[C@H]2[C@H](CS[C@H]2CCCCC(=O)*)N1; pY = N[C@@H](Cc1ccc(OP(=O)(O)O)cc1)C(=O)O; AEEA = NCCOCCOCC(=O)O

Target: T1, gp120 HxBc2 (Human immunodeficiency virus type 1 group M subtype B, UniProt P04578)
T1 construct: incubated for 3 h with gp120 HxBc2 (ImmuneTech); purchased ImmuneTech
Assay: Peptide binding assay (ELISA): gp120 binding to immobilized biotinylated peptide
Set-up: species or system HIV-1
Details: same ELISA, gp120 up to 16.6 nM
Procedure: High-binding Corning Costar microtiter half-area plates were coated with Neutravidin (Thermo Scientific, Dreieich, Germany, 4.0 μ g /mL) in 0.1 M carbonate buffer pH 9.6, overnight at 4 ^∘C . After the blocking of unspecific binding with 1% BSA in 0.1 M phosphate buffer pH 7.2, for 1 h , the neutravidin-coated plate was incubated with 2 μ m biotinylated peptide for 2 h . Plates were then incubated for 3 h with gp120 HxBc2 (ImmuneTech, New York, NY, USA) at three-fold serial dilutions, starting at 16.6 nM. Bound gp120 was detected with sheep anti-gp120 (Aalto Bio Reagents, Dublin, Ireland) 0.1 μ g /mL) for 1 h , followed by rabbit anti-sheep-HRP conjugate (Jackson Immuno Research, Ely, UK, 0.1 μ g /mL) for 1 h . All peptides and proteins were diluted in 0.1 M phosphate buffer pH 7.2, containing 0.01% Tween. Plates were developed with OPD ( 1 m g /mL) in the presence of 0.03% H2O2 for approximately 10 min in the dark. After the reaction was stopped with 2 M H2SO4, absorbance was read at 492 n m . The absorbance of the blanks (samples without peptide) was subtracted. All data points present means of duplicates. Curves were fitted and EC50 values calculated using the program Origin 2021 (OriginLab Corporation, Northampton, MA, USA).

Structure (SMILES): CC[C@H](C)[C@@H]1NC(=O)[C@@H](NC(=O)CNC(=O)COCCOCCNC(=O)CCCC[C@@H]2SC[C@@H]3NC(=O)N[C@@H]32)CSSC[C@@H](C(=O)N[C@@H](Cc2ccc(O)cc2)C(=O)N[C@@H](Cc2ccc(OP(=O)(O)O)cc2)C(=O)N[C@@H](CC(=O)O)C(=O)N[C@@H](Cc2ccccc2)C(=O)N[C@@H](CC(N)=O)C(=O)N[C@@H](CC(=O)O)C(=O)NCC(N)=O)NC(=O)[C@H](C(C)C)NC(=O)[C@H](CC(=O)O)NC(=O)[C@H](CC(=O)O)NC(=O)[C@H](Cc2c[nH]cn2)NC(=O)[C@H](Cc2c[nH]c3ccccc23)NC1=O [LW40.2] ({Biotin-AEEA}-GCIWHDDVCY[pY]DFNDG-NH2; disulfide 2-9)
- binding of gp120 to the peptide (in words): no detectable binding at all
